Source: paper PMC5939596 (Cell chemical biology, 2016)
Non-standard residues stand in square brackets, D forms with d. *: point of attachment. ACC = NC(=O)Cc1cc(=O)oc2cc(N*)ccc12; Tic = O=C(O)[C@@H]1Cc2ccccc2CN1; AMC = Cc1cc(=O)oc2cc(N*)ccc12; Cbz = O=C(OCc1ccccc1)*

Tests used:
[1] = molecular target: T1, caspase-3 (Homo sapiens, UniProt P42574); assay: Probe labelling in lysates of caspase-8/caspase-3 cotransfected M38L cells; assay type: cell-based; conditions: probe 1 μM, 30 min at 30°C, pH 5.8 or 7.4, immunoblotting
T1 sequence (P42574 29-175 limits assumed): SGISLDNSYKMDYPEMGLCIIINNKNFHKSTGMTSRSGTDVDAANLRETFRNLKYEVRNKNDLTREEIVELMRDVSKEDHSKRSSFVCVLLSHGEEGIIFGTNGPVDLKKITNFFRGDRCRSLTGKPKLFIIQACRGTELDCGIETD
T1 sequence (P42574 176-277 limits assumed): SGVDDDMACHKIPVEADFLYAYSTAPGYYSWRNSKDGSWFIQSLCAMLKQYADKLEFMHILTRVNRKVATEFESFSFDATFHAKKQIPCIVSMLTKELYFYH

[2] = molecular target: T2, legumain (Homo sapiens, UniProt Q99538); assay: as above; assay type: cell-based; conditions: for probe labelling of legumain: probe 1 μM, 30 min at 30°C, pH 5.8 or 7.4, immunoblotting
T2 sequence (Q99538 18-323 limits assumed): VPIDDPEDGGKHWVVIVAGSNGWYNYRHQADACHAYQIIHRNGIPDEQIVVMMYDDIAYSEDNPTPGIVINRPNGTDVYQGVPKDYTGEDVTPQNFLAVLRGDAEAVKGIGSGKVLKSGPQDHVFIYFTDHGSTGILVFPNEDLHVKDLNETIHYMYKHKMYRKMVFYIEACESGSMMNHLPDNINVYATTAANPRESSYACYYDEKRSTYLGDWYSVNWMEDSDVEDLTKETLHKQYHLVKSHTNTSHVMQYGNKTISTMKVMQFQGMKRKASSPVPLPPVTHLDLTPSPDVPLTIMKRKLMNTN

[3] = molecular target: T3, autoactivated recombinant human legumain (Homo sapiens, UniProt Q99538); assay: Inhibition rate constants
T3 sequence (Q99538 18-323 limits assumed): T2 sequence (Q99538 18-323 limits assumed)

[4] = molecular target: T1, caspase-3; assay: Probe binding in cytochrome c/dATP-activated FreeStyle 293-F cytosolic extract; conditions: probe 0–1 μM, pH 5.8 and 7.2, 5 or 30 min at 30°C, immunoblotting
[5] = system: legumain over-expressing M38L cells; conditions: time-course 0–24 h, immunoblotting
[6] = molecular target: T2, legumain; assay: pH dependence of legumain activity towards P1-Asn and P1-Asp substrates; assay type: biochemical
[7] = molecular target: T4, prolegumain (56 kDa) (Homo sapiens, UniProt Q99538); assay: Probe binding to prolegumain; conditions: immunoblotting
T4 sequence (Q99538 18-433): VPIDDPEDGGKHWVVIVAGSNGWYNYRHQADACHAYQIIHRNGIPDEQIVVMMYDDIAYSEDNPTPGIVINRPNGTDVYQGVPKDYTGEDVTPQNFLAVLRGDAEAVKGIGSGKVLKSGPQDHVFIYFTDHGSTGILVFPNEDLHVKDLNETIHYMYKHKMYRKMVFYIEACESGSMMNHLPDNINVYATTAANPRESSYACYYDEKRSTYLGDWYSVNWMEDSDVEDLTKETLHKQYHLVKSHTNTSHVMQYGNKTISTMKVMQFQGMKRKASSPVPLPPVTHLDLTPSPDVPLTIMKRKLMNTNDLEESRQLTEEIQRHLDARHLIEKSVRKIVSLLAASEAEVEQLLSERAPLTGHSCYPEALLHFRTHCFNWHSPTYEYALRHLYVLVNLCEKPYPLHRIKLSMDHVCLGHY

[8] = molecular target: T2, legumain; assay: Direct probe binding and inhibition of legumain in M38L cell lysate; assay type: biochemical; conditions: M38L lysate 3.5 μg total protein, probe 0–10 μM, pH 5.8, 30 min at 30°C
[9] = molecular target: T5, recombinant auto-activated legumain (46 kDa) (Homo sapiens, UniProt Q99538); assay: Probe binding to recombinant enzyme; conditions: probe 10 nM, enzyme 50 nM, pH 5.8 and pH 7.2
T5 sequence (Q99538 18-323 limits assumed): T2 sequence (Q99538 18-323 limits assumed)

[10] = molecular target: T3, autoactivated recombinant human legumain; assay: Km of legumain cleavage of Z-Ala-Ala-Asn-AMC; assay type: biochemical; conditions: 2.5 nM autoactivated rhLeg, substrate 1.565–200 nM, legumain assay buffer pH 5.8, 30°C
[11] = molecular target: T2, legumain; assay: Kinetics of ACC substrate hydrolysis by legumain; assay type: biochemical; conditions: for kcat/Km: hydrolysis by legumain

**Q.** “biotin-6-ahx-DEVD-AOMK [reference compound]” was tested. Which “probe labelling of caspase-3” value [1] did it give?
**A.** labels both legumain and caspase-3

**Q.** And the “probe labelling of legumain” value [2]?
**A.** labels both legumain and caspase-3

**Q.** What about the “inhibition of recombinant legumain (kobs/I), lower efficiency than MP-L01” value [3] of the same substance?
**A.** 20 fold

**Q.** What about the “binding to active caspase-3” value [4] of the same substance?
**A.** strongly bound

**Q.** With “biotin-6-ahx-D-Tyr-Tic-Ser-Asp-AOMK [MP-L01] [listing 1 of 2 here]” as the substance, how does the “incubation time for maximal detection of probe in cells” value [5] read?
**A.** 8 to 24 h

**Q.** Ac-[dY][Tic]TD-{ACC} was tested. Which “optimal pH for legumain activity” value [6] did it give?
**A.** 4.5

**Q.** What does the source list for “biotin-6-ahx-D-Tyr-Tic-Ser-Asp-AOMK [MP-L01] [listing 2 of 2 here]”?
**A.** binding to cellular, secreted or recombinant prolegumain (56 kDa) [7]: did not bind; potency relative to either methylated probes (MP-L02 or -L03) [8]: approximately 100 fold; probe labelling of caspase-3 [1]: could not detect such activity; pH dependence of legumain binding ([2]; lysates of M38L cells, pH 5.8 versus 7.4): only detected at pH 5.8 and not at 7.4; probe labelling of legumain [2]: only binds legumain; inhibition rate constant (kobs/I) relative to the two methylated probes (MP-L02 and -L03) ([3]; 2.5 nM enzyme, Z-Ala-Ala-Asn-AMC substrate, pH 5.8, 30°C): approximately 100 fold; binding to active caspase-3 [4]: only weakly bound; binding to recombinant auto-activated legumain [9]: bound by MP-L01 at pH 5.8 and not at pH 7.2

**Q.** Cbz-Ala-Ala-Asn-{AMC} was tested. Which Km [10] did it give?
**A.** 25.7 µM

**Q.** For Ac-D-Tyr-Tic-Thr-Asn-ACC, which “optimal pH for legumain activity” value [6] is on record?
**A.** 5.8

**Q.** For Cbz-Ala-Ala-Asp-{ACC}, which kcat/Km [11] is on record?
**A.** 1600 M⁻¹ s⁻¹

**Q.** Cbz-Ala-Ala-Asn-{ACC} was tested. Which kcat/Km [11] did it give?
**A.** 36100 s^−1M^−1

**Q.** What about the “times faster cleaved than its P1-Asp analog” value ([11]; ratio of kcat/Km, Z-AAN-ACC versus Z-AAD-ACC) of the same substance?
**A.** ~ 22
